{
  "source": "patent US20260286012A1",
  "about": "“ANTI-OUABAIN NANOBODY AND APPLICATION THEREOF” (priority 2023, published 2026)",
  "key": {"Hela cells [1]": {"tested_on": "Hela cells", "test": "MTT determination of cell survival rate", "assay_type": "cell-based", "design": "dose or concentration left out as unconfirmed", "conditions": "ouabain for 48 h and 24 h, respectively", "procedure": "By methyl thiazolyl tetrazolium (MTT), the cell survival rate was measured. When the cell density in a 6-well plate reached 80%-90%, the cells were digested, and centrifuged at 1000 rpm for 5 min; a cell precipitate was left, added with 1 mL of culture solution and then resuspended; and the cells were counted with a cell counting plate. 100 µL of cell suspension was added to a 96 ELISA plate at 1×10^4 cells/well, and sterile PBS was added around cell wells. The cells were cultured on a 96-well plate for 12 to 24 h. When the cell growth density reached 60% to 80%, a drug could be added to treat the cells at this point. […] The absorbance of each well was detected with a microplate reader at 490 nm and the cell survival rate was calculated. […]\n(§1) High-concentration ouabain can lead to apoptosis of cells. To study the pharmacological effect of ouabain Nb, this study treated Hela cells with ouabain and ouabain Nb, and detected the effects of ouabain and antibody protein on the cell survival rate by an MTT method. […] To further verify the biological activity of ouabain Nb, the Ca^2+ concentration in the HeLa cells was detected by neutralizing ouabain monomers with ouabain Nb. […] After incubation of ouabain Nb (5 μM) and ouabain, the cells were treated and the Ca^2+ concentration was detected."}, "Hela cells [2]": {"tested_on": "Hela cells", "test": "Flow cytometry assay for intracellular Ca2+ level", "assay_type": "cell-based", "conditions": "250 nM ouabain vs control group", "procedure": "The cells were cultured in a 12-well cell culture dish. When the cell growth density reached 60% to 80%, a drug could be added to treat the cells. The medium was removed from the treated cells under dark conditions, and the cells were rinsed with pre-warmed HBSS for three times to eliminate esterases and other substances in the medium to reduce their degradation to an ion probe. 1-5 μM of Fluo4-AM working solution was added, such that the cells were completely covered with the working solution and incubated in a cell incubator for 40 min at a constant temperature. The Fluo4-AM working solution was discarded, and the cells were washed with HBSS for three times to thoroughly remove any remaining dye Subsequently. […]\nas §1"}},
  "data": [
    {"smiles": "C[C@@H]1O[C@@H](O[C@H]2C[C@@H](O)[C@]3(CO)[C@H]4[C@H](O)C[C@]5(C)[C@@H](C6=CC(=O)OC6)CC[C@]5(O)[C@@H]4CC[C@]3(O)C2)[C@H](O)[C@H](O)[C@H]1O", "note": "[ouabain, Ouabain]", "values": [
      {"measurement": "survival rate of the cells treated with ouabain", "setting": "Hela cells [1]", "result": "reduced to half of the original"},
      {"measurement": "Ca2+ concentration in HeLa cells", "setting": "Hela cells [2]", "result": "significantly higher than that in the control group"}
    ]}
  ]
}
